From publication PMC12796071, “Evaluation of [^18F]MNI-1054, a novel PET ligand for lysine-specific histone demethylase 1A (LSD1), in non-human primates” (EJNMMI Research, 2025)
“Also recorded” adds a separate entry of the source.

How the values were obtained:
[1] = biological target: T1, LSD1 (Macaca mulatta, UniProt I2CUD2); assay: Brain PET imaging and kinetic analysis of [18F]MNI-1054 (irreversible 2TCM, Patlak); type: in vivo; set-up: from tissue; host or cells: brain of living rhesus monkeys (M1, M2), in vivo PET; settings: for Average Ki bias (SD) versus full 180-min scan: baseline studies; for Ki Baseline: cerebellum
Protocol: (§1) All brain scans were collected over 3 h on a microPET Focus 220 PET scanner (Siemens), with injected doses in the range 167.61–185 MBq. A transmission scan with an external Germanium-68 source was performed prior to the emission scans to estimate attenuation correction coefficients. Discrete arterial blood samples (n = 18–21) were taken throughout the scans to measure the parent fraction, plasma free fraction as well as total plasma and whole-blood activity for tracer kinetic modeling. Detailed procedures are provided in the Supplement.
M1 and M2 each completed a scan at baseline to assess brain penetration and kinetics and to serve as reference for the blocking and displacement studies. A self-block study with cold 3 mg/kg MNI-1054, starting 5 min prior to [^18F]MNI-1054 administration, was conducted in M1 to assess regional differences in non-specific binding.
Blocking studies with the LSD1 inhibitor TAK-418 ([…]) were performed to measure the dose-occupancy relationship for this compound. For blocking studies, TAK-418 was administered intravenously 2 h prior to [^18F]MNI-1054. Prior to conducting these blocking studies, a displacement study with TAK-418 (3 mg/kg) was performed to confirm irreversible tracer binding, in which TAK-418 was administered 1.5 h post [^18F]MNI-1054 administration. For all studies involving TAK-418, the test article was administered intravenously over 5 min. Due to the irreversible binding of these compounds to LSD1, the time taken for the enzyme to re-populate was investigated by imaging one animal (M2) with [^18F]MNI-1054 at 24 and 48 h post TAK-418 treatment (0.3 mg/kg). Each animal also underwent a high-resolution T1-weighted structural brain MRI scan with a 3-D MPRAGE sequence on a separate day for anatomical reference.
Emission data were reconstructed with filtered back projection into a series of 45 temporal frames (6 × 30, 3 × 60, 2 × 120, 34 × 300 s). For each frame, reconstructed images had dimensions of 256 × 256 × 95, voxel size of 0.949 × 0.949 × 0.796 mm and units of kBq/mL. All standard corrections were applied including normalization, random, scatter, dead-time, and attenuation. Dynamic brain PET images were analyzed using an in-house processing pipeline incorporating functionalities from FSL [18] and AFNI [19] as well as custom developed Matlab scripts (Mathworks Inc., Natick, MA, USA). Key steps of the workflow included rigidly aligning the PET images to the same animal’s brain MRI scan and spatially normalizing the MRI volume to the INIA19 [20] and NMT2.0 [21, 22] rhesus MR templates. Volumes of interest (VOIs) masks defined in rhesus MR template spaces were then inverse warped and applied to the PET images in their native orientation to compute time-activity curves (TACs) for the following regions: occipital lobe, temporal lobe, frontal lobe, parietal lobe, olfactory cortex, amygdala, cingulate, hippocampus, thalamus, hypothalamus, cerebellar grey matter, pons, striatum, nucleus accumbens and cerebral white matter. Lobar VOI masks were restricted to grey matter only. All VOI masks were derived from the INIA19 atlas, with the exception of the pons mask which was obtained from the NMT2.0 atlas (Fig. S.2.). The average activity concentration (kBq/mL) within each VOI was determined and TACs representing the regional brain activity concentration over time were generated. Brain TACs and images were presented in SUV units [g/mL] by normalizing activity concentration data [kBq/mL] by the animal’s weight [kg] and injected activity [MBq].
Regional TACs were modeled with an irreversible 2-tissue compartmental model (‘2TCM’) (k4 = 0) with the arterial input function to determine the tracer binding parameters Ki [mL/cm^3/min] (where Ki= K1. k3/(k2 + k3)) and λ.k3 (where λ = K1/k2), a parameter independent of blood flow and proportional to LSD1 binding site density via k3. […]

[2] = biological target: T1, LSD1; assay: PET imaging of the testes (baseline and TAK-418 blocking); settings: baseline scan; M3
Protocol: TAK-418 (3 mg/kg) was administered as an intravenous bolus over 5-min, starting 120 min prior to [^18F]MNI-1054 administration.

[3] = Arterial plasma radiometabolite analysis (parent fraction) during PET; type: in vivo, rhesus monkeys (macaca mulatta); settings: for parent fraction in arterial plasma: across baseline and blocking studies
Protocol: as §1
To generate arterial input functions, [^18F]MNI-1054 parent fraction measurements in plasma were first fitted to a sum of decaying exponentials using the Levenberg-Marquardt algorithm. The total arterial plasma activity concentration measurements were then multiplied by the resulting continuous parent fractions to yield the final input functions for kinetic modeling.
Arterial blood samples (1 mL or 3.5 mL) were drawn at 0.75, 1.5, 2.25, 3, 3.75, 4, 5, 6, 8, 10, 15, 20, 25, 30, 45, 60, 90, 120, 150, and 180 min post-injection to measure parent fraction, total plasma and whole blood activity. The larger samples were drawn for analysis of parent fraction. Aliquots of 200 µL of whole blood were counted in a gamma counter (Wallac 2480 Wizard^2® Automatic Gamma Counter, Perkin-Elmer, Waltham, Massachusetts) for 1 min (400-1400 keV window). All blood samples were centrifuged for 10 min at 3,000 g and the plasma separated. Aliquots of 200 µL of plasma were counted in the gamma counter for 1 min (400-1400 keV window).
The fraction of unchanged radiotracer in plasma was determined by HPLC at selected time points. […] Sample vials and pellets were counted in the gamma counter for 1 min to calculate the extraction percentage. Gamma chromatograms were analyzed by integration of all radioactive peaks. The percentage of parent compound was calculated by dividing the area under the peak representing parent compound by the sum of the area of all radioactive peaks.

[4] = irreversible 2TCM, across all scans and regions

With Cc1cc([18F])ncc1C(=O)Nc1ccc([C@@H]2C[C@H]2NCC2CC2)cc1 [[^18F]MNI-1054] as the molecule, how does the “displacement of tracer (change in TACs)” value ([1]; 3.0 mg/kg TAK-418 given 90 min post tracer injection, M1) read?
The value was “no observable change in the TACs; also recorded: did not displace”.

And the “Average Ki bias (SD) versus full 180-min scan” value ([1]; 120-min scan duration)?
Its value is 8.3 +/- 6.1%.

What about the “Average Ki bias (SD) versus full 180-min scan” value ([1]; 150-min scan duration) of the same molecule?
Its value is 3.2 +/- 2.8%.

And the “difference Ki,Patlak versus Ki,2TCMirrev, mean +/- SD” value ([1]; Patlak t* = 30 min, all studies and regions)?
The value was −0.00494 +/- 0.00348 mL/cm^3/min.

And the “Regional Ki in displacement study compared with baseline” value ([1]; TAK-418 3 mg/kg 1.5 h post tracer, same animal)?
Its value is “did not substantially vary”.

What about the “Ki Baseline” value ([1]; animal M1) of the same molecule?
The value was 0.058 mL/cm^3/min.

What about the “Ki Baseline” value ([1]; animal M2) of the same molecule?
The value was 0.047 mL/cm^3/min.

What about the “k2/k3, max” value [1, 4] of the same molecule?
The value was 194.4.

What about the “k2/k3, mean (SD)” value [1, 4] of the same molecule?
The value was 24.7 (28.6).

And the “k2/k3, min” value [1, 4]?
Its value is 6.1.

And the “testes uptake (SUV)” value [2]?
Its value is ~ 2.

And the “parent fraction in arterial plasma” value ([3]; 30 min post-injection)?
The value was ~ 42%.

And the “parent fraction in arterial plasma” value ([3]; 180 min post-injection)?
Its value is ~ 14%.

And the “parent fraction and parent-in-plasma activity concentration levels, higher in self-block study” value ([3]; self-block study (3 mg/kg cold MNI-1054) versus other studies)?
Its value is “about 20%”.
